In patent US7109014B1, “Diglycosidase isolated from microorganisms” (Amano Enzyme Inc., priority 1998, dated 2006):
Counter-ions that a name gives are not always drawn. Like-named read-outs stand apart in the source and are kept apart here.

Legend:
[1] = system: Aspergillus fumigatus IAM 2046; assay: Effects of inducers on the production of diglycosidase; assay type: cell-based; conditions: for activity at 0.1 %: Aspergillus fumigatus, IAM2046, 144 h, read-out: Inducing ability (%)
Description: Measurement of the activity was carried out using an automatic chemical analyzer (TBA-30R, manufactured by TOSHIBA CORP.). A 30 μl portion of each enzyme sample was mixed with 200 μl of acetate buffer solution (pH 5.5) containing 2 mM of p-nitrophenyl (pNP) primeveroside as the disaccharide glycoside substrate to carry out the reaction at 40° C. and at a cycle time of 22.5 seconds, for 9.75 minutes, and then the reaction solution was mixed with 250 μl of sodium carbonate to measure absorbance at 412 nm. Measurement of the sample blank was carried out in the same manner using 20 mM acetate buffer (pH 5.5) instead of the substrate solution.
Using Aspergillus fumigatus IAM 2046, effects of inducers on the production of diglycosidase were examined. Aspergillus fumigatus IAM 2046 was cultured for 6 days in a culture medium (2% soybean flour, 0.3% sodium chloride, 0.1% KH2PO4, 0.05% MgSO4.7H2O, 3% soluble starch) supplemented with 0.1% of each of various saccharides, and the diglycosidase activity was measured.

[2] = Release of disaccharide and formation of aroma from eugenyl primeveroside; assay type: biochemical; conditions: 0.3 AU purified enzyme, 37° C., 24 hours
Description: eugenyl primeveroside solution adjusted to 5 mg/ml with 20 mM phosphate buffer (pH 6.0), the mixture was incubated at 37° C. for 24 hours and then the formation of aroma was examined by a sensory test (10 panel). […]
[…] […] These were not found in heat-inactivated enzyme solution.

[3] = Optimum pH of diglycosidase; assay type: biochemical
Description: Its optimum pH was measured in the following manner. A 400 μl portion of 2 mM pNP-primeveroside solution which had been adjusted to a respective pH value of from pH 2 to 5 with 20 mM secondary citric acid-HCl buffer was incubated at 37° C. for 5 minutes. Next, this was mixed with 90 μl of the enzyme solution to carry out the reaction at 37° C. for 20 minutes. The reaction was stopped by adding 500 μl of 0.5 M sodium carbonate solution, and the activity measurement was carried out by measuring the absorbance at 420 nm.

[4] = Thermal stability of diglycosidase (residual activity); assay type: physicochemical; conditions: pH 8, 1 hour, 30 to 55° C.
Description: Thermal stability of the purified preparation was examined by diluting it 100 times with 20 mM glycine NaCl—NaOH buffer (pH 8), treating the dilution at each temperature of from 30 to 55° C. for 1 hour and then measuring the residual activity. As a result, the activity was stable at a temperature of 50° C. or below.

[5] = Sugar transfer in disaccharide unit by diglycosidase; assay type: biochemical; conditions: 55° C., 6 hours
Description: The purified enzyme of Example 6 was diluted with deionized water to adjust the activity to E1.0 AU/ml, and acetonitrile ([…]) containing 2.5% phenethyl alcohol, 20 mM acetate buffer (250 μl) containing 10% primeverose and the enzyme solution (50 μl) were mixed to carry out the reaction at 55° C. The reaction was completed after 6 hours and the reaction solution was mixed with 500 μl of diethyl ether, stirred and then centrifuged to remove free aglycon which was transferred into the ether layer. By applying the water layer to a Diaion HP-20 column and passing purified water through the column, free primeverose was removed. The disaccharide glycoside adsorbed to the resin was eluted with methanol and concentrated to dryness. This was dissolved in 100 μl of deionized water, and a 20 μl portion thereof was spotted on a TLC plate to detect the reaction product (the developing solvent was ethyl acetate:acetic acid:deionized water=3:1:1, acetic acid:methanol=1:4 solution was sprayed thereto after the development and allowed to stand at 105° C. for 10 minutes).

[6] = Release of primeverose from pNP-primeveroside by TLC; assay type: biochemical; conditions: 0.3 AU purified enzyme, 37° C., 24 hours
Description: Each of the crude enzyme solutions obtained in Examples 1 and 2 was concentrated using an ultrafiltration membrane having a molecular weight cutoff of 6,000. Next, 1 ml of the concentrated solution was mixed with 1 ml of a 5 mg/ml pNP-primeveroside solution which had been prepared using 20 mM phosphate buffer (pH 6.0), and the mixture was incubated at 37° C. Samples were collected 1, 2, 4, 24 and 48 hours thereafter to confirm release of primeverose by a thin layer chromatography (TLC).
A 0.3 AU portion of the purified enzyme solution obtained in Example 6 and the aforementioned pNP-primeveroside were incubated at 37° C. for 24 hours to examine release of disaccharide by TLC. […] Such a spot was not found by the heat-treated purified enzyme solution used as a control.

[7] = Release of disaccharide from pigment glycoside by TLC; assay type: biochemical; conditions: 5 mg/ml ruberythric acid, 37° C., 24 hours
Description: Release of disaccharide was examined using a disaccharide glycoside, ruberythric acid, as the substrate. Ruberythric acid was prepared by adsorbing a water extract of Rubia tinctorum L. root powder for staining use (available from Tanaka Senshoku Ten) to HP-20 column, washing the column with 50% methanol, and then eluting the compound with 100% methanol and evaporating the eluate to dryness using an evaporator. A substrate prepared by dissolving the thus recovered ruberythric acid in a phosphate buffer to a concentration of 5 mg/ml was mixed with the crude enzyme solution (0.3 AU) shown in Example 4 or the purified enzyme solution shown in Example 6 and incubated at 37° C. for 24 hours, and then the reaction solution was analyzed by TLC.

[8] = Optimum temperature of diglycosidase; assay type: biochemical; conditions: pH 2.5, 20 minutes
Description: Its optimum temperature was measured in the following manner. A 400 μl portion of 2 mM pNP-primeveroside solution prepared using 20 mM disodium citric acid-HCl buffer (pH 2.5) was mixed with 90 μl of the enzyme solution to carry out the reaction at 30 to 65° C. for 20 minutes. The reaction was stopped by adding 500 μl of 0.5 M sodium carbonate solution, and the activity was determined by measuring the absorbance at 420 nm.

[9] = medium supplemented with 0.1% of saccharide, cultured 6 days, diglycosidase activity, not added = 100

Molecule | activity at 0.1 % [1, 9] [%] | Inducing ability (%) [1, 9] [%] | also measured
OC[C@H]1O[C@H](O[C@H]2[C@H](O)[C@@H](O)C(O)O[C@@H]2CO)[C@H](O)[C@@H](O)[C@@H]1O (mixture of isomers) [Maltose] | 136 |  | 
OC[C@@H](O)C(O)[C@H](O)CO [Arabitol] |  | 112 | 
O=C(CO)[C@@H](O)[C@H](O)[C@H](O)CO [Fructose] |  |  | activity at 0.1 % [1]: 143%
OC[C@@H](O)[C@H](O)[C@H](O)[C@@H](O)CO [Galactitol] | 142 |  | 
O=C[C@H](O)[C@@H](O)[C@@H](O)[C@H](O)CO [Galactose] | 125 |  | 
N[C@H]1C(O)O[C@H](CO)[C@@H](O)[C@@H]1O (some centres unmarked) [Glucosamine hydrochloride] | 157 |  | 
OC[C@H]1O[C@H](OC[C@H]2OC(O)[C@H](O)[C@@H](O)[C@@H]2O)[C@H](O)[C@@H](O)[C@@H]1O (some centres unmarked) [Isomaltose] |  | 145 | 
OC[C@@H](O)[C@@H](O[C@H]1O[C@H](CO)[C@@H](O)[C@H](O)[C@H]1O)[C@H](O)[C@@H](O)CO [Maltitol] |  | 142 | 
C[C@H](O)[C@H](O)[C@@H](O)[C@@H](O)C=O [Rhamnose] | 129 |  | 
OC[C@H]1O[C@@](CO)(O[C@H]2O[C@H](CO)[C@@H](O)[C@H](O)[C@H]2O)[C@@H](O)[C@@H]1O [Sucrose] | 116 |  | 
OC[C@H]1O[C@H](O[C@H]2O[C@H](CO)[C@@H](O)[C@H](O)[C@H]2O)[C@H](O)[C@@H](O)[C@@H]1O [Trehalose] | 113 |  | 
Gentiobiose |  | 211 | inducing ability / producing ability of diglycosidase (in words) ([1]; 0.1% saccharide, 6 days): markedly high inducing ability
Maltotriose |  | 171 | 
diglycosidase derived from Aspergillus fumigatus: purified enzyme preparation of diglycosidase from Aspergillus fumigatus IAM 2046, single band of 47 kDa, SEQ ID NO: 8 (protein, listed as Aspergillus fumigatus) AASASAYCSNSAGNYKLSSIAAPVQGAGNPGSESTWQLTVDDTSSGHKQTIVGFGAAVTDATVTSFNTLSASVLQDLLNKLMTPAGANFALMRHTIGASDLSGDPAYTYDDNGGKADPSLSGFNLGDRGTAMAKMLATMKSLQPNLKILGSPWSAPGWMKLNGVLDGNTNNNNLNDGYLTSGGTGSTGYASQFAQYFVKYIQAYKNLGAHVDAITIQNEPLFSSAGYPTMYVYDYESAQLIQNYIGPALASAGLDTEIWAYDHNTDVPSYPQTVLNQAGQYVKSVAWHCYAPNVDWTVLSQFHNTNPGVKQYMTECWTPASGAWHQAADFTMGPLQNWASGVAAWTLGTNAQDGPHLSTGGCATCQGLVTINNGGYTLNTAYYMMAQFSKFMPPGAIVLNGSGSYTYSGGGGIQSVASLNPDGTRTVVIENTFGNDVYVTVTMKSGQKWSGNAPSQSVTTWVLPSA |  |  | release of disaccharide (TLC) [2]: release of a disaccharide was confirmed; release of eugenol (gas chromatography) [2]: confirmed; release of eugenol (sensory test) [2]: release of eugenol was also confirmed; activity at pH 3 (in words) [3]: sufficient activity; temperature at which activity is stable [4]: ≤ 50 °C; transfer of disaccharide to phenethyl alcohol (TLC) [5]: transfers the diglycoside to phenethyl alcohol and thereby forms a disaccharide glycoside; release of disaccharide (TLC) [6]: release of a disaccharide was confirmed; release of primeverose and alizarin (TLC) [7]: release of the disaccharide primeverose and the aglycon alizarin was observed; activity at 60° C. [8]: 80%
